According to patent EP4818176A1, “TETRACYCLIC DERIVATIVE INHIBITOR, AND PREPARATION METHOD AND USE THEREFOR” (Shanghai Hansoh Biomedical Co., Ltd., priority 2023, dated 2025):
Where two headings read alike, the source gives them in different places.

Key:
[1] = target: T1, PRMT5/MEP50-MTA protein complex (Homo sapiens, UniProt O14744); experiment: Thermal shift assay: thermal stability (melting temperature) of PRMT5/MEP50-MTA protein complex; assay type: binding; details: final compound concentration 8 µM; 2 µM PRMT5/MEP50, 2 µM MTA; Tm minus Tm of DMSO vehicle control
T1 construct: purchased Viva Biotech
From the text: Test Example 1: Determination of the ability of the compounds of the present invention to improve the thermal stability (melting temperature) of the PRMT5/MEP50-MTA protein complex.
1 Experimental objective: The objective of this test example is to determine the ability of the compound to improve the thermal stability of the PRMT5/MEP50-MTA protein complex, resulting in an increase in the protein melting temperature. 2 Experimental instruments: Quantitative PCR instrument (Quantstudio6 Flex) was purchased from Life Technologies; pipettes were purchased from Eppendorf or Rainin. 3 Experimental reagents and consumables: PRMT5/MEP50 protein was prepared by Viva Biotech; HEPES was purchased from Thermo Fisher Scientific (Cat. No. 15630080); DTT was purchased from Sigma (Cat. No. 43816-10ml); sodium chloride was purchased from Invitrogen (Cat. No. AM9760G); Protein Thermal Shift™ Dye Kit was purchased from Thermo Fisher Scientific (Cat. No. 4461146); methylthioadenosine (MTA) was purchased from Sigma (Cat. No. D5011). 4 Experimental method: In this experiment, the thermal shift method was used to measure the change in the melting temperature (Tm) of the PRMT5/MEP50-MTA protein complex before and after compound binding, thereby characterising the ability of the compound to improve the thermal stability of the PRMT5/MEP50-MTA protein complex. A solution containing 50 mM HEPES, 10 mM DTT, 2 µM MTA, SYPRO Orange and 250 mM NaCl was prepared as the experimental buffer. Human PRMT5/MEP50 protein was added to a final concentration of 2 µM, and the mixture was incubated at room temperature for 30 minutes. The above reaction mixture was aliquoted into 8-strip PCR tubes at 19.5 µL per tube. Then 0.5 µL of test compound or DMSO was added to each tube, providing a total reaction volume of 20 µL and a final compound concentration of 8 µM. 2.5% DMSO was set as the vehicle control. After incubation at room temperature for 10 minutes, the PCR tubes were placed in a PCR instrument, and the melt curve function was selected to measure the melting temperature of the PRMT5/MEP50-MTA protein complex in different treatment groups (heated from 25°C to 95°C, 0.03°C/s). 5 Experimental data processing method: The experimental data files from the PCR instrument were imported into the thermal shift software to obtain the melting temperature (Tm) for each treatment group.

HCT116 wild-type cells = experiment: Cell proliferation inhibition (CellTiter-Glo), HCT116 wild-type cells; assay type: cell-based; details: Homo sapiens
From the text: (§1) Test Example 2: Determination of the inhibitory effect of the compounds of the present invention on the proliferation activity of HCT116 and MTAP Knockout HCT116 cells.
(§2) 1 Experimental objective: The objective of this test example is to determine the inhibitory effect of the compound on the proliferation activity of HCT116 wild-type and HCT116 MTAP knockout cells. 2 Experimental instruments: Centrifuge (Eppendorf 5810R); microplate reader (BioTek Synergy H1 or PerkinElmer Envision); pipette (Eppendorf or Rainin). 3 Experimental reagents: HCT116 and MTAP Knockout HCT116 cells were purchased from Nanjing Cobioer; Cell Titer-Glo was purchased from Promega (Cat. No. G7573); McCoy'5A was purchased from Gibco (Cat. No. 12330031); FBS was purchased from Gibco (Cat. No. 10091148); PBS was purchased from Gibco (Cat. No. 10010023); trypsin was purchased from Gibco (Cat. No. 25200056); cell culture plates were purchased from Corning (Cat. No. 3610). 4 Experimental method: HCT116 and MTAP Knockout HCT116 cells were cultured in McCoy'5A medium containing 10% FBS until an appropriate cell density was reached. The cells were then collected and adjusted to a suitable concentration using complete medium. The cell suspension was seeded into a 96-well plate at 90 µL per well and allowed to adhere overnight in a 37°C, 5% CO2 incubator. Compound solutions of various concentrations were prepared using DMSO and culture medium, with a vehicle control set. The compound solutions were added to the 96-well plate at 10 µL per well, and the plate was incubated in a 37°C, 5% CO2 incubator for an additional 72-240 hours. After incubation, CellTiter-Glo solution was added, and the mixture was mixed uniformly by shaking, followed by incubation in the dark for 10 to 30 minutes. Luminescence was measured using a Synergy H1 or Envision microplate reader. 5 Experimental data processing method: The inhibition rate was calculated using the luminescence signal values, and the concentrations along with the inhibition rates were subjected to non-linear regression curve fitting using Graphpad Prism software to obtain the IC50 values.

[2] = test system: MTAP Knockout HCT116 cells; experiment: Cell proliferation inhibition (CellTiter-Glo), HCT116 MTAP knockout cells; assay type: cell-based; details: for Selectivity: HCT116 IC50 versus MTAP Knockout HCT116 IC50; for IC50: Homo sapiens
From the text: as §1, §2

[3] = HCT-116, HCT116 wild-type cells, proliferation inhibition, Cell Titer-Glo, read-out: HCT116 IC50
[4] = HCT-116, MTAP Knockout HCT116 cells, proliferation inhibition, Cell Titer-Glo, read-out: MTAP Knockout HCT116 IC50
[5] = HCT-116, read-out: MTAP Knockout HCT116 IC50

T1 sequence (O14744 whole entry): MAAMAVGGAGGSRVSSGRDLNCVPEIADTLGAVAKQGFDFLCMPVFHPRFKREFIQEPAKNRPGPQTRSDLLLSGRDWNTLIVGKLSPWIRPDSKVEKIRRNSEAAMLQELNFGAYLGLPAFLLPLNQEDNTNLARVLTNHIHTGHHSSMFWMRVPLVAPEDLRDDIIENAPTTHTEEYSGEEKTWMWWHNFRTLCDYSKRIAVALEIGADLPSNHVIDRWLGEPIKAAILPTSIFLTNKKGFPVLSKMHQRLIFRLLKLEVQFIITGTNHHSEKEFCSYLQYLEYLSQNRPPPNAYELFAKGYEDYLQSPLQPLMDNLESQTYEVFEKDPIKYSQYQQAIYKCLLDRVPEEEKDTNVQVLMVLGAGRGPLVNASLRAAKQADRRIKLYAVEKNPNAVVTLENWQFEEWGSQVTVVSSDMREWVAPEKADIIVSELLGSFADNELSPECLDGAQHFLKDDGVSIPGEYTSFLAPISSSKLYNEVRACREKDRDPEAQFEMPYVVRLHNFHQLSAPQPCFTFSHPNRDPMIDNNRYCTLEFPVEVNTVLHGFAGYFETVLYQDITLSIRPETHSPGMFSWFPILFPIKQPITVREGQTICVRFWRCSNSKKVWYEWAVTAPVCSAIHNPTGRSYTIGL
T1 sequence (Q9BQA1 whole entry partner): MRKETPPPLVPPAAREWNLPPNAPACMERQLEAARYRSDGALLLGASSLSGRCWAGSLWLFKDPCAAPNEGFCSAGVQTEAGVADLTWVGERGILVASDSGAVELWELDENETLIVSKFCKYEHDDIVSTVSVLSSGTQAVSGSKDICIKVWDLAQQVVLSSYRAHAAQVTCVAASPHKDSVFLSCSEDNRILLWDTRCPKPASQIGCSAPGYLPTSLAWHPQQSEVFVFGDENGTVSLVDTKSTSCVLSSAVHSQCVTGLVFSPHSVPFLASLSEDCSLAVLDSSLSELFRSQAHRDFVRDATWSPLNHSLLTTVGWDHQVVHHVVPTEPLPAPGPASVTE

Nc1nc2cc3c(cc2n2cncc12)C(=O)N(Cc1ccc(-c2c(F)cncc2F)cn1)CCC/C=C\3 [Example 419, (Z)-4-Amino-12-(3',5'-difluoro-[3,4'-bipyridin]-6-yl)methyl-9,10,11,12-tetrahydro-13H-azonino[4,3-g]imidazo[1,5-a]quinoxalin-13-one]
ΔTm at 8 µM [1]: 12.7 °C
IC50 (HCT116 wild-type cells; [3]): 0.051 µM
Selectivity [2]: 14
IC50 [2, 4]: 0.0036 µM

Nc1nc2cc3c(cc2n2cncc12)C(=O)N(C1COCc2nc(C(F)(F)F)ccc21)CC/C=C\3 (racemic) [Example 311]
ΔTm at 8 µM [1]: 11.1 °C
IC50 (HCT116 wild-type cells; HCT-116, read-out: HCT116 IC50): 1.74 µM
Selectivity [2]: 77
IC50 [2, 5]: 0.023 µM

Cn1ncc2c(N)nc3cc4c(cc3c21)C(=O)N(Cc1ccc(-c2c(F)cccc2F)cn1)CCCOC4 [Example 427, 4-Amino-12-((5-(2,6-difluorophenyl)pyridin-2-yl)methyl)-1-methyl-1,7,9,10,11,12-hexahydro-13H-[1,5]oxazolo[7,8-g]pyrazolo[4,3-c]quinolin-13-one]
ΔTm at 8 µM [1]: 13.7 °C
IC50 (HCT116 wild-type cells; HCT-116, read-out: HCT116 IC50): 0.027 µM
Selectivity [2]: 30
IC50 [2, 5]: 0.0009 µM

Nc1nc2cc3c(cc2c2c1COC2)C(=O)N(Cc1ccc(C(F)(F)F)cn1)CCC/C=C\3 [Example 173, (Z)-4-Amino-12-((5-(trifluoromethyl)pyridin-2-yl)methyl)-1,3,9,10,11,12-hexahydro-13H-azo[3,4-g]furo[3,4-c]quinolin-13-one]
ΔTm at 8 µM [1]: 11.6 °C
IC50 (HCT116 wild-type cells; [3]): 0.279 µM
Selectivity [2]: 80
IC50 [2, 4]: 0.0035 µM

Nc1nc2cc3c(cc2n2cncc12)C(=O)N(Cc1ccc(C(F)(F)F)nn1)CC/C=C\3 [Example 418, (Z)-4-Amino-12-(6-(trifluoromethyl)pyridazin-3-yl)methyl-9,10,11,12-tetrahydro-13H-azocino[4,3-g]imidazo[1,5-a]quinoxalin-13-one]
ΔTm at 8 µM [1]: 11.5 °C
IC50 (HCT116 wild-type cells; HCT-116, read-out: HCT116 IC50): 1.09 µM
Selectivity [2]: 54
IC50 [2, 5]: 0.02 µM

Nc1nc2cc3c(cc2n2cncc12)C(=O)N([C@@H]1COc2cc(C(F)(F)F)ccc21)CCC/C=C\3 (stereo in doubt) [Example 164-P1, rel-(R, Z)-4-amino-12-(6-(trifluoromethyl)-2,3-dihydrobenzofuran-3-yl)-9,10,11,12-tetrahydro-13H-azo[4,3-g]imidazo[1,5-a]quinoxalin-13-one]
ΔTm at 8 µM [1]: 11.2 °C
IC50 (HCT116 wild-type cells; [3]): 0.556 µM
Selectivity [2]: 40
IC50 [2, 4]: 0.014 µM

NC1=NC2C=C3CCCCCN(Cc4ccc(C(F)(F)F)cn4)C(=O)C3=CC2n2cncc21 (stereo not shown) [Example 77, 4-Amino-12-((5-(trifluoromethyl)pyridin-2-yl)methyl)-5a,7,8,9,10,11,12,14a-octahydro-13H-azonino[4,3-g]imidazo[1,5-a]quinoxalin-13-one]
ΔTm at 8 µM [1]: 11 °C
IC50 (HCT116 wild-type cells; [3]): 0.236 µM
Selectivity [2]: 20
IC50 [2, 4]: 0.012 µM

C[C@H]1CCCN(Cc2ccc(C(F)(F)F)cn2)C(=O)c2cc3c(cc2C1)nc(N)c1cncn13 [Example 514-P2, (S)-4-amino-8-methyl-12-((5-(trifluoromethyl)pyridin-2-yl)methyl)-7,8,9,10,11,12-hexahydro-13H-azo[4,3-g]imidazo[1,5-a]quinoxalin-13-one]
ΔTm at 8 µM [1]: 11.6 °C
IC50 (HCT116 wild-type cells; HCT-116, read-out: HCT116 IC50): 1 µM
Selectivity [2]: 71
IC50 [2, 5]: 0.014 µM

Nc1nc2cc3c(cc2c2c1COC2)C(=O)N(Cc1ccc(-c2c(F)cccc2F)cn1)CCCOC3 [Example 431, 4-Amino-12-(5-(2,6-difluorophenyl)pyridin-2-yl)methyl-3,7,9,10,11,12-hexahydrofuro[3,4-c][1,5]oxazolino[7,8-g]quinolin-13(1H)-one]
ΔTm at 8 µM [1]: 12.3 °C
IC50 (HCT116 wild-type cells; HCT-116, read-out: HCT116 IC50): 0.2 µM
Selectivity [2]: 61
IC50 [2, 5]: 0.0033 µM

CC(c1ccc(C(F)(F)F)cn1)N1CC/C=C\c2cc3nc(N)c4cncn4c3cc2C1=O (single isomer, unassigned) [Example 313-P1]
ΔTm at 8 µM [1]: 11.1 °C
IC50 (HCT116 wild-type cells; [3]): 1.02 µM
Selectivity [2]: 59
IC50 [2, 4]: 0.017 µM

Nc1nc2cc3c(cc2c2c1COC2)C(=O)N(Cc1ccc(C24CC(C2)C4)cn1)CCCOC3 [Example 510, 4-Amino-12-((5-(bicyclo[1.1.1]pentan-1-yl)pyridin-2-yl)methyl)-3,7,9,10,11,12-hexahydrofuro[3,4-c][1,5]oxazolo[7,8-g]quinolin-13(1H)-one]
ΔTm at 8 µM [1]: 11.3 °C
IC50 (HCT116 wild-type cells; HCT-116, read-out: HCT116 IC50): 0.771 µM
Selectivity [2]: 66
IC50 [2, 5]: 0.012 µM

Nc1nc2cc3c(cc2n2cncc12)C(=O)N(Cc1ccc(C24CC(C2)C4)cn1)CCCOC3 [Example 484, 4-Amino-12-((5-(bicyclo[1.1.1]pentan-1-yl)pyridin-2-yl)methyl)-9,10,11,12-tetrahydroimidazo[1,5-a][1,5]oxazolo[8,7-g]quinoxalin-13(7H)-one]
ΔTm at 8 µM [1]: 11.9 °C
IC50 (HCT116 wild-type cells; [3]): 0.379 µM
Selectivity [2]: 38
IC50 [2, 4]: 0.0099 µM

CC1OCc2c1c(N)nc1cc3c(cc21)C(=O)N(Cc1ccc(C(F)(F)F)cn1)CCCOC3 (stereo not shown) [Example 184, 4-Amino-3-methyl-12-((5-(trifluoromethyl)pyridin-2-yl)methyl)-3,7,9,10,11,12-hexahydrofuro[3,4-c][1,5]oxazolo [7,8-g]quinoxalin-13(1H)-one]
ΔTm at 8 µM [1]: 11.1 °C
IC50 (HCT116 wild-type cells; HCT-116, read-out: HCT116 IC50): 2.29 µM
Selectivity [2]: 108
IC50 [2, 5]: 0.021 µM

CC1CCCN(Cc2ccc(C(F)(F)F)cn2)C(=O)c2cc3c(cc2C1)nc(N)c1cncn13 (racemic) [Example 514, 4-Amino-8-methyl-12-((5-(trifluoromethyl)pyridin-2-yl)methyl)-7,8,9,10,11,12-hexahydro-13H-azo[4,3-g]imidazo[1,5-a]quinoxalin-13-one]
ΔTm at 8 µM [1]: 10.9 °C
IC50 (HCT116 wild-type cells; HCT-116, read-out: HCT116 IC50): 0.807 µM
Selectivity [2]: 55
IC50 [2, 5]: 0.015 µM

Cn1ncc2c(N)nc3cc4c(cc3c21)C(=O)N(C1COc2cc(C(F)(F)F)ccc21)CCCOC4 (stereo not shown) [Example 270, 4-Amino-1-methyl-12-(6-(trifluoromethyl)-2,3-dihydrobenzofuran-3-yl)-1,7,9,10,11,12-hexahydro-13H-[1,5]oxazonino[7,8-g]pyrazolo[4,3-c]quinolin-13-one]
ΔTm at 8 µM [1]: 10.8 °C
IC50 (HCT116 wild-type cells; HCT-116, read-out: HCT116 IC50): 2.45 µM
Selectivity [2]: 147
IC50 [2, 5]: 0.017 µM

Nc1nc2cc3c(cc2n2cncc12)C(=O)N(C1COCc2nc(C(F)(F)F)ccc21)CC/C=C\3 (stereo not shown) [Example 157, (Z)-4-Amino-11-(2-(trifluoromethyl)-5,8-dihydro-6H-pyrano[3,4-b]pyridin-5-yl)-10,11-dihydroazocino[4,3-g]imidazo[1,5-a]quinoxalin-12(9H)-one]
ΔTm at 8 µM [1]: 11.1 °C
IC50 (HCT116 wild-type cells; [3]): 1.74 µM
Selectivity [2]: 77
IC50 [2, 4]: 0.023 µM
